From patent US12077503B2, “Substituted cyclic amides and their use as herbicides” (FMC CORPORATION, priority 2015, dated 2024)

What was measured:
Format in all cases: in vivo
[1] = test system: blackgrass (Alopecurus myosuroides); test: Test A postemergence; conditions: Alopecurus myosuroides, post-emergence, 240 h; for pest or weed control at 125 g/ha: 125 g ai/ha, postemergence, visual injury vs untreated controls after approx. 10 d, 0 = no effect, 100 = complete control, read-out: Blackgrass plant response rating (0 to 100 scale); for pest or weed control at 500 g/ha: Postemergence, 500 g ai/ha, visual injury, 0 to 100 scale (0 no effect, 100 complete control), approx. 10 d, read-out: Plant response rating, Blackgrass
In short: (§1)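 Preemergence directed soil spray on seeded pots, or postemergence application to plants 2–10 cm, one- to two-leaf. Solvent mixture non-phytotoxic, with surfactant. Scored ~10 d later, visually, 0–100 vs untreated.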

[2] = test system: ryegrass, Italian (Italian ryegrass, Lolium multiflorum); test: Test A postemergence; conditions: Lolium multiflorum, post-emergence, 240 h; for pest or weed control at 125 g/ha: 125 g ai/ha, postemergence, visual injury vs untreated controls after approx. 10 d, 0 = no effect, 100 = complete control, read-out: Ryegrass, Italian plant response rating (0 to 100 scale); for pest or weed control at 500 g/ha: Postemergence, 500 g ai/ha, visual injury, 0 to 100 scale (0 no effect, 100 complete control), approx. 10 d, read-out: Plant response rating, Ryegrass, Italian
In short: as §1

Kochia (Kochia scoparia) [3] = test: Test A postemergence; conditions: Bassia scoparia, post-emergence, 240 h; for pest or weed control at 125 g/ha: 125 g ai/ha, postemergence, visual injury vs untreated controls after approx. 10 d, 0 = no effect, 100 = complete control, read-out: Kochia plant response rating (0 to 100 scale); for pest or weed control at 500 g/ha: Postemergence, 500 g ai/ha, visual injury, 0 to 100 scale (0 no effect, 100 complete control), approx. 10 d, read-out: Plant response rating, Kochia
In short: as §1

[4] = test system: wheat (Triticum aestivum); test: Test A postemergence; conditions: Triticum aestivum, post-emergence, 240 h; for plant injury at 500 g/ha: Postemergence, 500 g ai/ha, visual injury, 0 to 100 scale (0 no effect, 100 complete control), approx. 10 d, read-out: Plant response rating, Wheat
In short: as §1

[5] = test system: Galium (catchweed bedstraw, Galium aparine); test: Test A postemergence; conditions: Galium, post-emergence, 240 h; for pest or weed control at 125 g/ha: 125 g ai/ha, postemergence, visual injury vs untreated controls after approx. 10 d, 0 = no effect, 100 = complete control, read-out: Galium plant response rating (0 to 100 scale); for pest or weed control at 500 g/ha: Postemergence, 500 g ai/ha, visual injury, 0 to 100 scale (0 no effect, 100 complete control), approx. 10 d, read-out: Plant response rating, Galium
In short: as §1

[6] = test system: giant foxtail (Setaria faberii); test: Test A postemergence; conditions: Setaria faberi, post-emergence, 240 h; for pest or weed control at 125 g/ha: 125 g ai/ha, postemergence, visual injury vs untreated controls after approx. 10 d, 0 = no effect, 100 = complete control, read-out: Foxtail, Giant plant response rating (0 to 100 scale); for pest or weed control at 500 g/ha: Postemergence, 500 g ai/ha, visual injury, 0 to 100 scale (0 no effect, 100 complete control), approx. 10 d, read-out: Plant response rating, Foxtail, Giant
In short: as §1

[7] = test system: pigweed (Amaranthus retroflexus); test: Test A postemergence; conditions: Amaranthus retroflexus, post-emergence, 240 h; for pest or weed control at 125 g/ha: 125 g ai/ha, postemergence, visual injury vs untreated controls after approx. 10 d, 0 = no effect, 100 = complete control, read-out: Pigweed plant response rating (0 to 100 scale); for pest or weed control at 500 g/ha: Postemergence, 500 g ai/ha, visual injury, 0 to 100 scale (0 no effect, 100 complete control), approx. 10 d, read-out: Plant response rating, Pigweed
In short: as §1

[8] = test system: ragweed (common ragweed, Ambrosia elatior); test: Test A postemergence; conditions: Ambrosia artemisiifolia, post-emergence, 240 h; for pest or weed control at 125 g/ha: 125 g ai/ha, postemergence, visual injury vs untreated controls after approx. 10 d, 0 = no effect, 100 = complete control, read-out: Ragweed plant response rating (0 to 100 scale); for pest or weed control at 500 g/ha: Postemergence, 500 g ai/ha, visual injury, 0 to 100 scale (0 no effect, 100 complete control), approx. 10 d, read-out: Plant response rating, Ragweed
In short: as §1

[9] = test system: barnyardgrass (Echinochloa crus-galli); test: Test A postemergence; conditions: Echinochloa crus-galli, post-emergence, 240 h; for pest or weed control at 125 g/ha: 125 g ai/ha, postemergence, visual injury vs untreated controls after approx. 10 d, 0 = no effect, 100 = complete control, read-out: Barnyardgrass plant response rating (0 to 100 scale); for pest or weed control at 500 g/ha: Postemergence, 500 g ai/ha, visual injury, 0 to 100 scale (0 no effect, 100 complete control), approx. 10 d, read-out: Plant response rating, Barnyardgrass
In short: as §1

corn (Zea mays) = test: Test A postemergence; conditions: Zea mays, post-emergence, 240 h; for plant injury at 125 g/ha: 125 g ai/ha, postemergence, visual injury vs untreated controls after approx. 10 d, 0 = no effect, 100 = complete control, read-out: Corn plant response rating (0 to 100 scale); for Corn plant response rating (crop injury, 0 = no effect, 100 = complete kill) at 500 g/ha: Postemergence, 500 g ai/ha, visual injury, 0 to 100 scale (0 no effect, 100 complete control), approx. 10 d
In short: as §1

[10] = test system: ryegrass, Italian (Italian ryegrass, Lolium multiflorum); test: Test A preemergence; conditions: Lolium multiflorum, pre-emergence, 240 h, preemergence, 0 to 100 scale where 0 is no effect and 100 is complete control, read-out: Ryegrass, Italian plant response rating; for pest or weed control at 125 g/ha: 125 g ai/ha, visual injury rating, approximately 10 d; for pest or weed control at 500 g/ha: 500 g ai/ha
In short: as §1

Kochia (Kochia scoparia) [11] = test: Test A preemergence; conditions: Bassia scoparia, pre-emergence, 240 h, preemergence, 0 to 100 scale where 0 is no effect and 100 is complete control, read-out: Kochia plant response rating; for pest or weed control at 125 g/ha: 125 g ai/ha, visual injury rating, approximately 10 d; for pest or weed control at 500 g/ha: 500 g ai/ha
In short: as §1

[12] = test system: giant foxtail (Setaria faberii); test: Test A preemergence; conditions: Setaria faberi, pre-emergence, 240 h, preemergence, 0 to 100 scale where 0 is no effect and 100 is complete control, read-out: Foxtail, Giant plant response rating; for pest or weed control at 125 g/ha: 125 g ai/ha, visual injury rating, approximately 10 d; for pest or weed control at 500 g/ha: 500 g ai/ha
In short: as §1

[13] = test system: ragweed (common ragweed, Ambrosia elatior); test: Test A preemergence; conditions: Ambrosia artemisiifolia, pre-emergence, 240 h, preemergence, 0 to 100 scale where 0 is no effect and 100 is complete control, read-out: Ragweed plant response rating; for pest or weed control at 125 g/ha: 125 g ai/ha, visual injury rating, approximately 10 d; for pest or weed control at 500 g/ha: 500 g ai/ha
In short: as §1

[14] = test system: barnyardgrass (Echinochloa crus-galli); test: Test A preemergence; conditions: Echinochloa crus-galli, pre-emergence, 240 h, preemergence, 0 to 100 scale where 0 is no effect and 100 is complete control, read-out: Barnyardgrass plant response rating; for pest or weed control at 125 g/ha: 125 g ai/ha, visual injury rating, approximately 10 d; for pest or weed control at 500 g/ha: 500 g ai/ha
In short: as §1

Row | Structure (SMILES) | pest or weed control at 125 g/ha [1] [%] | pest or weed control at 500 g/ha [1] [%] | pest or weed control at 125 g/ha [2] [%] | pest or weed control at 500 g/ha [2] [%] | pest or weed control at 125 g/ha (Kochia (Kochia scoparia) [3]) [%] | pest or weed control at 500 g/ha (Kochia (Kochia scoparia) [3]) [%] | plant injury at 500 g/ha [4] [%] | pest or weed control at 125 g/ha [5] [%] | pest or weed control at 500 g/ha [5] [%] | pest or weed control at 125 g/ha [6] [%] | pest or weed control at 500 g/ha [6] [%] | pest or weed control at 125 g/ha [7] [%] | pest or weed control at 500 g/ha [7] [%] | pest or weed control at 125 g/ha [8] [%] | pest or weed control at 500 g/ha [8] [%] | pest or weed control at 125 g/ha [9] [%] | pest or weed control at 500 g/ha [9] [%] | plant injury at 125 g/ha (corn (Zea mays)) [%] | Corn plant response rating (crop injury, 0 = no effect, 100 = complete kill) at 500 g/ha (corn (Zea mays)) [%] | pest or weed control at 125 g/ha [10] [%] | further results
1 | Cc1c(F)cccc1NC(=O)[C@H]1C(=O)N(C)C[C@@H]1c1ccc2c(c1)OC(F)(F)O2 [Compound 1252] | 50 | 50 | 70 | 70 | 20 | 60 | 70 | 50 | 60 | 80 | 80 | 0 | 50 | 0 | 50 | 80 | 90 | 80 | 90 | 80 | plant injury at 125 g/ha ([4]; 125 g ai/ha, postemergence, visual injury vs untreated controls after approx. 10 d, 0 = no effect, 100 = complete control, read-out: Wheat plant response rating (0 to 100 scale)): 70%; pest or weed control at 500 g/ha [10]: 90%; pest or weed control at 125 g/ha (Kochia (Kochia scoparia) [11]): 80%; pest or weed control at 500 g/ha (Kochia (Kochia scoparia) [11]): 80%; pest or weed control at 125 g/ha [12]: 90%; pest or weed control at 500 g/ha [12]: 100%; pest or weed control at 125 g/ha [13]: 60%; pest or weed control at 500 g/ha [13]: 70%; pest or weed control at 125 g/ha [14]: 100%; pest or weed control at 500 g/ha [14]: 100%
2 | CN1C[C@H](c2ccc(F)c(C#N)c2)[C@@H](C(=O)Nc2ccccc2F)C1=O [Compound 1254] | 0 | 40 | 0 | 70 | 0 | 40 | 40 | 30 | 50 | 80 | 80 | 0 | 20 | 0 | 0 | 80 | 90 | 20 | 50 | 0 | pest or weed control at 500 g/ha [10]: 40%; pest or weed control at 125 g/ha (Kochia (Kochia scoparia) [11]): 20%; pest or weed control at 500 g/ha (Kochia (Kochia scoparia) [11]): 70%; pest or weed control at 125 g/ha [12]: 90%; pest or weed control at 500 g/ha [12]: 100%; pest or weed control at 125 g/ha [13]: 0%; pest or weed control at 500 g/ha [13]: 30%; pest or weed control at 125 g/ha [14]: 100%; pest or weed control at 500 g/ha [14]: 100%
3 | CSc1ccccc1NC(=O)[C@H]1C(=O)NC[C@@H]1c1ccc2c(c1)OCO2 [Compound 1257] | 0 | 0 | 0 | 0 | 0 | 0 | 0 | 0 | 0 | 0 | 0 | 0 | 0 | 0 | 0 | 0 | 0 | 0 | 0 | 0 | pest or weed control at 500 g/ha [10]: 0%; pest or weed control at 125 g/ha (Kochia (Kochia scoparia) [11]): 0%; pest or weed control at 500 g/ha (Kochia (Kochia scoparia) [11]): 0%; pest or weed control at 125 g/ha [12]: 0%; pest or weed control at 500 g/ha [12]: 0%; pest or weed control at 125 g/ha [13]: 0%; pest or weed control at 500 g/ha [13]: 0%; pest or weed control at 125 g/ha [14]: 0%; pest or weed control at 500 g/ha [14]: 0%
